We go through five compounds from patent publication US20090093669A1, “MAGNETOPHORESIS APPARATUS AND METHOD OF USE” (priority 2007, published 2009).

Read-outs that look alike come from different tables or passages of the source.

Data set [1] is classed as in vitro ADME, beef. From the text: Each individual magnet had: • a residual induction value of at least 1,500 mT (magnetization of 1,200,000 amp/meter); • diameter of about 12.7 mm; and a • thickness of about 6.35 mm.
The magnets were arranged in an alternating polarity sequence on an iron flux ring (the iron flux ring is shaped like a washer). This positioning increased the field in the direction away from the flux ring. This arrangement is similar to the standard QuadraBloc® sold by Gradient Technologies, LLC. The magnetic field at the center of a North Pole of the magnets was about 530 mT. The array was placed over the drug such that the face of the magnets (away from the flux ring and towards the skin) covered the drug solution applied to the test material or skin. This configuration is described in U.S. applications Ser. No. 11/469,346 which is incorporated by reference herein.
The TENS unit used in the following experiments was set for 20 volts with a pulse rate of 100 Hz and a pulse width of 200 microseconds. Other usable settings will influence the results as the strength of the field is directly proportional to all of the variables and increasing any of the variables will drive the drug faster. The settings are important for treating underlying pain; however, when drugs are being applied at the same time as the TENS is being utilized to treat pain, it generally is not desirable to use the highest settings. […]
The test system used to determine the rates of dispersion in tissue was commercial homogenized beef tissue with various levels of lipids (fat) to cells compressed into 3 mm sheets. […] The beef tissue was purchased with selected levels of fat present in the samples as measured by the producer. […] The drug or formulation to be tested was placed on top of the tissue stack and then after a specified time the stack was separated and the individual 3 mm layers (bologna sheet/slice) were analyzed for the drug content. The drug migration was analyzed by extracting the tissue at the various depths with solvents and then quantifying the drug in that sample. […]

Setting [2] is: TENS electric field applied (20 volts, 100 Hz, 200 microseconds), fat free/low fat beef tissue.
The mark [3] stands for this setting: magnetic field applied, fat free/low fat beef tissue.
Setting [4] is: quadrapolar magnetic field applied (530 mT at surface), fat free/low fat beef tissue.
Where [5] appears, read: control test, no applied field, fat free/low fat (lean) beef tissue, unit not given.

For `CCCCN1CCCCC1C(=O)Nc1c(C)cccc1C` (stereo not drawn) [bupivacaine], under “cattle”, the “enhancement of diffusion coefficient, TENS versus control” value (“enhancement … TENS versus control” for short) was 6-8 times and the “enhancement of diffusion coefficient, magnetic field versus control” value (“enhancement … magnetic field versus control” for short) was 4-5 times.

For `COc1cc(CNC(=O)CCCC/C=C/C(C)C)ccc1O` [capsaicin], the “diffusion coefficient Dx” value reads like this: under setting [2], 0.30 mm^2/min; (cattle, 0.075 %) 0.02 mm^2/min; under setting [4], 0.09 mm^2/min. For the setting “TENS electric field, first 30 minutes, fat free tissue”, the “depth of penetration (front)” value amounted to 12 mm. In addition, under “TENS electric field, 15 mm stack, fat free tissue”, the “time to totally penetrate the height of the stacks” value is 60 min. In addition, the diffusion coefficient (cattle) is recorded as 0.02. Also, the “enhancement … TENS versus control” value (cattle) is on record as 15 times. Under setting [3], the “enhancement … magnetic field versus control” value turned out to be 4.5 times. In addition, the depth of penetration runs as follows: (magnetic field, 30 minutes, fat free tissue) 7.5 mm; (magnetic field, end of 240 minutes, total tissue system, fat free tissue) 15 mm; (simple diffusion (control), 240 minutes, fat free tissue) 8 mm; (simple diffusion (control), after 30 minutes, fat free tissue) 4.5 mm. Where the note is “magnetic field, fat free sample”, the “rate of penetration, magnetic field versus control” value was “doubled”. The “effect of TENS on the diffusion coefficient” value in data set [1] was “minimal effect”. In addition, the “diffusion coefficient in lipid containing tissue versus lean tissue” value in data set [1] (cattle, 0.075 %) is on record as “about 8 times”. Moreover, the “diffusion coefficient with magnets versus simple diffusion” value in data set [1] (cattle, 0.075 %) is reported as 3 times.

Consider `O=C(c1ccccc1)c1ccc2n1CCC2C(=O)O` (stereo not drawn) [ketorolac], for which, under “cattle”, the “enhancement … TENS versus control” value is 6-8 times and the “enhancement … magnetic field versus control” value was 4-5 times.

For `CCN(CC)CC(=O)Nc1c(C)cccc1C` [lidocaine], the “diffusion coefficient Dx” value is recorded as 0.12 mm^2/min under setting [2] and 0.04 mm^2/min under setting [4]. In addition, the “enhancement … TENS versus control” value (TENS field applied, fat free/low fat beef tissue) was found to be 4.4 times. Under setting [5], this compound showed a diffusion coefficient of 0.027. Besides, under setting [3], the “enhancement … magnetic field versus control” value is recorded as “about 1.5 times”. Further, the “increase in diffusion coefficient, magnets versus control” value (magnets applied, low fat beef tissue) came out at 48%.

As for insulin glargine, the “diffusion coefficient Dx” value under setting [2] is listed as 0.008 mm^2/min and the “diffusion coefficient Dx” value under setting [4] was 0.007 mm^2/min. This compound also displayed a diffusion coefficient under setting [5] of 0.002. Further, the “enhancement … magnetic field versus control” value under setting [3] was “three and a half”.
